Measured values published in patent EP3570868B1, “[…] ANTIMICROBIAL PEPTIDES AND THEIR APPLICATIONS FOR THE TREATMENT AND PREVENTION OF MUSCU[…]” (Ustav Organicke Chemie a Biochemie AV CR, v.v.i., priority 2017, dated 2018).
Square brackets hold non-standard residues; d marks the D form. Peptide text beside a SMILES is read from it. Met(O) = CS(=O)CC[C@H](N)C(=O)O; βAla = NCCC(=O)O

Key:
human red blood cells = test: Determination of haemolytic activity; assay type: cell-based; conditions: human red blood cells (5% v/v), 1 h at 37 °C; concentration for lysis of 50% of erythrocytes
Experimental: The peptides in the concentrations 2-400 µmol.1^-1 were incubated with the suspension of human red blood cells (5% v/v) for 1 h at 37 °C in a physiological solution at a final volume of 0.2 ml. The samples were then centrifuged for 5 min at 250 g. The absorbance of the supernatant was determined at 540 nm. 0.2% (v/v) TRITON X100 was used as a control for 100% haemolysis. Haemolytic activity is expressed as the peptide concentration required for lysis of 50% of human erythrocytes in the assay (LC50). Table 2. Antimicrobial and haemolytic activity of I up to XIII peptides and tetracycline.

[1] = test system: S. aureus (clin. isolate Liberec); test: Induced osteomyelitis model in femur heads: effect of peptides released from carrier on infection in the bone graft; assay type: cell-based; conditions: ChronOS (200 mg); 10 mg; two days; carrier without peptide 1,4x10^7
Experimental: (§1) 3-4 holes of a diameter of 5 mm and a depth of 10 mm are drilled with a surgical spoon into a femur head under sterile conditions (spongy part of the bone in the resection site). Thereafter, this bone graft is put into a beaker of appropriate size and lined with sterile gauze squares. The gauze is moistened with sterile physiological saline to prevent drying of the bone. Then, suspension of multiplied microbes in an appropriate medium (50-100 µl) at a concentration of 10^7 to 10^9 CFU is sequentially applied to the prepared holes in the bone graft and allowed to incubate for 1-2 days. […] Beaker with the infected bone graft is covered with a sterile Petri dish. During the experiment, induced osteomyelitis models are kept protected from light at room temperature.
(§2) After the incubation, the infected holes in the bone are filled with a mixture of the local carrier, and a peptide selected from the series of peptides of formulae I to XIII or their specific enantiomers (Figure 1). For comparison, one of the holes is filled with the local carrier without peptide, or the carrier filled with antibiotic (vancomycin or gentamicin). A commercially available two-component material supplied by Synthes (Synthes GmbH, Switzerland) under the name ChronOS Inject was used as the carrier. Its solid component comprises a mixture of calcium phosphates CaHPO4.2H2O and Ca3(PO4)2 and additives, the liquid component is 0.5% (vol./vol.) solution of hyaluronic acid.
(§3) After two days, the filling is thoroughly removed with a surgical spoon and empty holes are wiped with moistened sterile cotton swab, which is then extracted into 400 µl physiological saline. The extract is diluted in a tenfold serial dilution and each diluted suspension is cultured on agar in Petri dishes; the culture is evaluated on the following day. […] The result of the peptide effect is also compared with the result of the effect of antibiotics. In some cases, microbiological examination of the bone tissue taken with a surgical spoon from a deeper area of the drilled holes is performed. […] Table 3. Evaluation of the effect of antimicrobial peptides released from the carrier on an infection in the bone graft. Effect of antimicrobial activity is expressed in the number of CFU (colony-forming units) in the infected hole after swabbing.

Bacillus subtilis = assay type: cell-based; conditions: B.s.; 37° C for 20 h
Experimental: (§4) Gram-positive bacteria (Bacillus subtilis, Staphylococcus aureus, Staphylococcus epidermidis and Enterococcus faecalis), Gram-negative bacteria (Escherichia coli and Pseudomonas aeruginosa) and the yeast (Candida albicans) were grown to exponential phase and then were diluted with fresh medium. BHI medium (Oxoid, Great Britain) was used for Enterococcus faecalis; YPD medium containing yeast extract, peptone and glucose was used for Candida albicans and LB medium (Sigma, Czech Republic) was used for the remaining microorganisms. Then the microorganisms were added to the solutions of the tested antimicrobial peptides in LB medium in multi-well plates, so that the final peptide concentration it the wells was in the range of 0.5 to 100 µmοl.1^-1. The plates were incubated at 37° C for 20 h while being continuously shaken in a Bioscreen C (Oy Growth Curves AB Ltd., Helsinki, Finland). Absorbance was measured at 540 nm every 15 min. Antimicrobial activity (Table 2) was determined as a quantitative minimum inhibitory concentration (MIC) by observing bacterial growth in the presence of different concentrations of tested peptides. In the experiments, ca 10^5 CFU of bacteria or candida per well were used. Tetracycline in a concentration range of 0.5 - 100 µmol.1^-1 was used as a standard.
(§5) Clinical isolates of bacteria were obtained from University Hospital in Motol, Prague, Czech Republic and from Liberec Regional Hospital, Czech Republic. Methicillin resistant Staphylococcus aureus (MRSA) 6271 and Pseudomonas aeruginosa 5482 were from the Czech National Collection of Type Cultures, the National Institute of Public Health, Prague, Czech Republic. Other bacteria were from the Czech Collection of Microorganisms, Brno, Czech Republic. Candida albicans came from the Faculty of Medicine, Palacky University, Olomouc, Czech Republic. Candida tropicalis ATCC 750 and Candida glabrata DSY 565 were obtained from the Institute of Physiology, Academy of Sciences of the Czech Republic.

Candida albicans = assay type: cell-based; conditions: C.a.; 37° C for 20 h
Experimental: as §4, §5

Escherichia coli = assay type: cell-based; conditions: E.c.; 37° C for 20 h
Experimental: as §4, §5

[2] = test system: MRSA (clin. isolate Liberec); assay type: cell-based, Staphylococcus aureus; conditions: 37° C for 20 h
Experimental: as §4, §5

[3] = test system: MRSA (clin. isolate Motol); assay type: cell-based, Staphylococcus aureus; conditions: 37° C for 20 h
Experimental: as §4, §5

MRSA 6271 [4] = assay type: cell-based, Staphylococcus aureus; conditions: 37° C for 20 h
Experimental: as §4, §5

[5] = test system: S.e. (clin. isolate Motol); assay type: cell-based, Staphylococcus epidermidis; conditions: 37° C for 20 h
Experimental: as §4, §5

[6] = test system: E.f. (clin. isolate Motol); assay type: cell-based, Enterococcus faecalis; conditions: 37° C for 20 h
Experimental: as §4, §5

[7] = test system: P.a. (clin. isolate Liberec); assay type: cell-based, Pseudomonas aeruginosa; conditions: 37° C for 20 h
Experimental: as §4, §5

P.a. 5482 = assay type: cell-based, Pseudomonas aeruginosa; conditions: 37° C for 20 h
Experimental: as §4, §5

[8] = test system: S. epidermidis (clin. isolate Motol); test: Induced osteomyelitis model in femur heads: effect of peptides released from carrier on infection in the bone graft; assay type: cell-based; conditions: 10 mg, two days
Experimental: as §1, §2, §3

MRSA 6271 [9] = test: Biofilm formation on the surface of a bone cement implant in femur heads; assay type: cell-based, Staphylococcus aureus; conditions: two days, cement without peptide 6.0x10^4
Experimental: The resulting elastic paste is placed into a 2 ml plastic syringe (without needle) and pressed into the infected holes in the spongy part of the bone, where it polymerizes and hardens. For comparison, other similarly infected holes are filled with cement containing only an antibiotic or antimycotic agent. For comparison, a Vancogenx® cement (Tecresa S. p. A., Italy) is used, made from a mixture of a powdered polymer component containing vancomycin and gentamicin. The mixture in an amount of 125 mg is mixed with liquid monomer (50-60 µl) and then pressed into the openings as described above. In another embodiment, the cements are applied to uninfected holes, allowed to harden, and then microbes are pipetted into the hole excavated between implants. From there they penetrate through bone tissue and settle on the implants with consequent formation of biofilms.
After two days, implants are removed with metal spikes and tweezers, mechanically cleaned from debris of bone tissue, and washed four times with physiological saline (0.5 ml) in plastic tubes to remove any residual planktonic microbes or bone cells from their surface. The implants in closed tubes with 0.4 ml saline are then sonicated four times for 3 min with occasional shaking. The of microbial biofilm on the surface of the implant is thus disrupted and microbes are loosed into the physiological saline. The resulting suspension is subsequently diluted using the tenfold serial dilution for culturing on agar.
Evaluation of the effect of antimicrobial peptides on the formation of microbial biofilm on the surface of the implant made of the bone cement.

## CC[C@@H](C)[C@@H](NC(=O)[C@@H](CCCCN)NC(=O)[C@@H](CCCCN)NC(=O)[C@@H](CC(C)C)NC(=O)[C@@H](CC(C)C)NC(=O)[C@@H](CCCCN)NC(=O)[C@@H](CCSC)NC(=O)[C@@H](Cc1c[nH]c2ccccc12)NC(=O)[C@H](N)CCCCN)C(=O)N[C@H](CC(C)C)C(=O)N[C@H](CCCCN)C(N)=O [II] (H-[dK][dW][dM][dK][dL][dL][dK][dK][dI][dL][dK]-NH2)
Human red blood cells
  Hemolytic activity LC50: >400 µmol/L
[1]
  CFU/hole: 1,8 x10^4 CFU/hole

## CC[C@@H](C)[C@@H](NC(=O)[C@@H](CCCCN)NC(=O)[C@@H](CCCCN)NC(=O)[C@@H](CC(C)C)NC(=O)[C@@H](CC(C)C)NC(=O)[C@@H](CCCCN)NC(=O)[C@@H](CCSC)NC(=O)[C@@H](Cc1c[nH]c2ccccc12)NC(=O)[C@@H](CCCCN)NC(=O)CN)C(=O)N[C@H](CC(C)C)C(=O)N[C@H](CCCCN)C(N)=O [IV]
Bacillus subtilis
  Antimicrobial activity MIC: 1,4 µmol.l^-1
Candida albicans
  Antimicrobial activity MIC: 5,7 µmol.l^-1
Escherichia coli
  Antimicrobial activity MIC: 3,0 µmol.l^-1
[2]
  Antimicrobial activity MIC: 5,3 µmol.l^-1
[3]
  Antimicrobial activity MIC: 9,7 µmol.l^-1
MRSA 6271 [4]
  Antimicrobial activity MIC: 11,3 µmol.l^-1
[5]
  Antimicrobial activity MIC: 2,0 µmol.l^-1
[6]
  Antimicrobial activity MIC: 12,7 µmol.l^-1
[7]
  Antimicrobial activity MIC: 12,5 µmol.l^-1
P.a. 5482
  Antimicrobial activity MIC: 4,5 µmol.l^-1
Human red blood cells
  Hemolytic activity LC50: >400 µmol/L

## CC[C@@H](C)[C@@H](NC(=O)[C@@H](CCCCN)NC(=O)[C@@H](CCCCN)NC(=O)[C@@H](CC(C)C)NC(=O)[C@@H](CC(C)C)NC(=O)[C@@H](CCCCN)NC(=O)[C@H](NC(=O)[C@@H](Cc1c[nH]c2ccccc12)NC(=O)[C@@H](CCCCN)NC(=O)CN)C(C)C)C(=O)N[C@H](CC(C)C)C(=O)N[C@H](CCCCN)C(N)=O [IX] (H-G[dK][dW][dV][dK][dL][dL][dK][dK][dI][dL][dK]-NH2)
Human red blood cells
  Hemolytic activity LC50: >400 µmol/L
[8]; ChronOS (300 mg), separate holes, carrier without peptide 1,2x10^5
  CFU/hole: 0 in all cases CFU/hole

## CC[C@H](C)[C@H](NC(=O)[C@H](CCCCN)NC(=O)[C@H](CCCCN)NC(=O)[C@H](CC(C)C)NC(=O)[C@H](CC(C)C)NC(=O)[C@H](CCCCN)NC(=O)[C@H](CC(C)C)NC(=O)[C@H](Cc1c[nH]c2ccccc12)NC(=O)[C@H](CCCCN)NC(=O)CN)C(=O)N[C@@H](CC(C)C)C(=O)N[C@@H](CCCCN)C(N)=O [Peptide VII] (H-GKWLKLLKKILK-NH2)
Bacillus subtilis
  Antimicrobial activity MIC: 2,0 µmol.l^-1
Candida albicans
  Antimicrobial activity MIC: 16,0 µmol.l^-1
Escherichia coli
  Antimicrobial activity MIC: 5,0 µmol.l^-1
[2]
  Antimicrobial activity MIC: 8,0 µmol.l^-1
[3]
  Antimicrobial activity MIC: 10,0 µmol.l^-1
MRSA 6271 [4]
  Antimicrobial activity MIC: 10,0 µmol.l^-1
[5]
  Antimicrobial activity MIC: 2,2 µmol.l^-1
[6]
  Antimicrobial activity MIC: 50,7 µmol.l^-1
[7]
  Antimicrobial activity MIC: 10,7 µmol.l^-1
P.a. 5482
  Antimicrobial activity MIC: 4,0 µmol.l^-1
Human red blood cells
  Hemolytic activity LC50: 196 µmol/L
[8]; ChronOS (200 mg), carrier without peptide 7,2x10^4
  CFU/hole: 1,2 x10^2 CFU/hole

## CC[C@@H](C)[C@@H](NC(=O)[C@@H](CCCCN)NC(=O)[C@@H](CCCCN)NC(=O)[C@@H](CC(C)C)NC(=O)[C@@H](CC(C)C)NC(=O)[C@@H](CCCCN)NC(=O)[C@@H](CCSC)NC(=O)[C@@H](Cc1c[nH]c2ccccc12)NC(=O)[C@@H](CCCCN)NC(=O)CCN)C(=O)N[C@H](CC(C)C)C(=O)N[C@H](CCCCN)C(N)=O [Peptide VI] (H-[βAla][dK][dW][dM][dK][dL][dL][dK][dK][dI][dL][dK]-NH2)
Human red blood cells
  Hemolytic activity LC50: >400 µmol/L

## CC[C@H](C)[C@H](NC(=O)[C@H](CCCCN)NC(=O)[C@H](CCCCN)NC(=O)[C@H](CC(C)C)NC(=O)[C@H](CC(C)C)NC(=O)[C@H](CCCCN)NC(=O)[C@H](CC[S+](C)[O-])NC(=O)[C@H](Cc1c[nH]c2ccccc12)NC(=O)[C@H](CCCCN)NC(=O)CN)C(=O)N[C@@H](CC(C)C)C(=O)N[C@@H](CCCCN)C(N)=O (stereo partly drawn) [XII] (H-GKW[Met(O)]KLLKKILK-NH2)
Bacillus subtilis
  Antimicrobial activity MIC: 2,5 µmol.l^-1
Candida albicans
  Antimicrobial activity MIC: 21,3 µmol.l^-1
Escherichia coli
  Antimicrobial activity MIC: 26,7 µmol.l^-1
[2]
  Antimicrobial activity MIC: 11,5 µmol.l^-1
[3]
  Antimicrobial activity MIC: 25,3 µmol.l^-1
MRSA 6271 [4]
  Antimicrobial activity MIC: 64,0 µmol.l^-1
[5]
  Antimicrobial activity MIC: 5,0 µmol.l^-1
[6]
  Antimicrobial activity MIC: >100 µmol/L
[7]
  Antimicrobial activity MIC: 22,1 µmol.l^-1
P.a. 5482
  Antimicrobial activity MIC: 5,0 µmol.l^-1
Human red blood cells
  Hemolytic activity LC50: >400 µmol/L
MRSA 6271 [9]
  CFU/implant: 0 CFU/implant

## CC[C@H](C)[C@H](NC(=O)[C@H](CCCCN)NC(=O)[C@H](CCCCN)NC(=O)[C@H](CC(C)C)NC(=O)[C@H](CC(C)C)NC(=O)[C@H](CCCCN)NC(=O)[C@H](CCCCN)NC(=O)[C@H](Cc1c[nH]c2ccccc12)NC(=O)[C@H](CCCCN)NC(=O)CN)C(=O)N[C@@H](CC(C)C)C(=O)N[C@@H](CCCCN)C(N)=O [X] (H-GKWKKLLKKILK-NH2)
Bacillus subtilis
  Antimicrobial activity MIC: 2,4 µmol.l^-1
Candida albicans
  Antimicrobial activity MIC: 9,5 µmol.l^-1
Escherichia coli
  Antimicrobial activity MIC: 11,5 µmol.l^-1
[2]
  Antimicrobial activity MIC: 11,5 µmol.l^-1
[3]
  Antimicrobial activity MIC: 25,3 µmol.l^-1
MRSA 6271 [4]
  Antimicrobial activity MIC: 29,7 µmol.l^-1
[5]
  Antimicrobial activity MIC: 4,7 µmol.l^-1
[6]
  Antimicrobial activity MIC: >100 µmol/L
[7]
  Antimicrobial activity MIC: 9,5 µmol.l^-1
P.a. 5482
  Antimicrobial activity MIC: 2,9 µmol.l^-1
Human red blood cells
  Hemolytic activity LC50: >400 µmol/L
